Assay [1] deals with T1, Alg44 (Pseudomonas aeruginosa, UniProt Q9HY69). Briefly: intact protein LC-MS adduct. Format: binding.
In assay [2] the target is T1, Alg44. Briefly: intact protein LC-MS adduct. Format: binding. This is another data set of the same source.

Read-outs that look alike come from different tables or passages of the source.

T1 sequence (Q9HY69 14-122): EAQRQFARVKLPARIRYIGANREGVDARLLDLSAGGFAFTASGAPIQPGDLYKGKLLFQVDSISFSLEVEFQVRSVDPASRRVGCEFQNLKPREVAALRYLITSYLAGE

For `CCC1(C)Cc2ccccc2-c2nc3[nH][nH]c(=S)n3c(=O)c21` (centres unmarked) [compound 925], half-maximal inhibition at Alg44 [1] (IC50) was put at 58.1 ± 1.2 µM.

Turning to AC1LFHI9, inhibition against Alg44 [2] was half-maximal at 63.5 ± 1.3 µM (IC50).

(Values after PMC6295334 (ACS chemical biology, 2017).)
